{
  "source": "patent US20160346255A1",
  "about": "“METHODS, AGENTS AND COMPOSITIONS FOR TREATMENT OF INFLAMMATORY CONDITIONS” (Betanien Hospital, priority 2014, published 2016)",
  "format_in_all_cases": "in vivo, human",
  "key": {"[1]": {"system": "Patient with Psoriatic Arthritis", "experiment": "Psoriatic arthritis patient treated with oral ASP1707", "details": "3 mg daily for 12 weeks; response at 4 months", "procedure": "• person with psoriatic arthritis • Fulfills CASPAR 2006 classification criteria for psoriatic arthritis.\n• Is offered experimental GnRH antagonist therapy, ASP1707 3 mg daily for 12 weeks."}, "[2]": {"system": "patient with cancer-related inflammation", "experiment": "Cancer-related inflammation, colon cancer patient treated with oral ASP1707", "details": "8 mg daily, at 3 months", "source_text": "• person with colon cancer with disease duration of 1 year. Suffers from signs and symptoms of cancer-related inflammation, such as pain, anorexia, and fatigue."}, "[3]": {"system": "post-menopausal female with rheumatoid arthritis", "experiment": "Post-menopausal RA patients on methotrexate, oral ASP1707 30 mg twice daily for 12 weeks", "details": "ASP1707+MTX; Week 12; assuming placebo+MTX 30%", "protocol": "• Patient is offered experimental GnRH antagonist therapy, ASP1707 30 mg twice daily for 12 weeks orally. Primary Assessment is ACR20 response rate at 12 weeks."}},
  "data": [
    {"smiles": "C[C@@H](O)C(=N)NS(=O)(=O)c1cc(C(=O)C(C(=O)c2cc(F)ccc2F)=C2Nc3ccccc3N2)ccc1F", "note": "[ASP1707, (2R)—N-({5-[3-(2,5-difluorophenyl)-2-(1,3-dihydro-2H-benzoimidazol-2-ylidene)-3-oxopropanoyl]-2-fluorophenyl}sulfonyl)-2-hydroxypropanimidamide]", "values": [
      {"measurement": "DAS reduction", "setting": "[1]", "result": "over 0.6 units"},
      {"measurement": "Signs and symptoms of cancer related inflammation (pain, anorexia, fatigue)", "setting": "[2]", "result": "reduced"},
      {"measurement": "CRP", "setting": "[2]; baseline 40 mg/L", "result": 12, "unit": "mg/L"},
      {"measurement": "ACR20 response rate", "setting": "[3]", "result": 60, "unit": "%"}
    ]}
  ]
}
